Some test systems named below: OVCAR-4 ovarian; T-47D breast; MALME-3M melanoma; MDA-MB-231 breast; A498 renal; XF 498 CNS; M19-MEL melanoma; DMS 114 small cell lung; LXFL 529 NSCLC; DLD-1 colon; KM20L2 colon; MCF7 breast; HOP-18 NSCLC; RXF-631 renal; SNB-78 CNS.
Holding throughout (experiment): NCI tumour cell line growth inhibition, 48 h

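Tested at 5 concentrations; 48 h exposure; 96-well plates; endpoints linearly interpolated, else capped at highest concentration. At the GI50, growth is halved. TGI: concentration producing complete growth inhibition.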

Turning to `COc1ccc2nc3cc(Cl)ccc3c(NCCCN(C)CCCNc3ccc4ncn5c6ccccc6c(=O)c3c45)c2c1`, the TGI with OVCAR-4 ovarian was 3.95 µM; in the assay with T-47D breast, above 17.3 µM; in the assay on MALME-3M melanoma it was 7.09 µM; with MDA-MB-231 breast, 6.02 µM; in the assay with A498 renal, 6.52 µM.

`CC(C)OP(=O)(OC(C)C)C(=Nc1ccc(N=C(NNc2ccc([N+](=O)[O-])cc2)P(=O)(OC(C)C)OC(C)C)cc1)NNc1ccc([N+](=O)[O-])cc1`: the TGI in the assay with XF 498 CNS, in the assay with M19-MEL melanoma, in the assay on OVCAR-4 ovarian, in the assay with MALME-3M melanoma, with DMS 114 small cell lung and with LXFL 529 NSCLC was above 100 µM in each case. Also, the TGI with A498 renal, with DLD-1 colon and in the assay on KM20L2 colon was above 100 µM each time.

With `O[C@@H]1CCCCN1Cc1cc2cc3c(cc2c2cc(OCc4ccccc4)ccc12)OCO3`, the GI50 in the assay on OVCAR-4 ovarian is 1.45 µM; in the assay on MALME-3M melanoma, 1.66 µM; in the assay on MDA-MB-231 breast, 1.75 µM; in the assay on A498 renal, 1.41 µM; in the assay with MCF7 breast, 1.33 µM. In addition, the TGI is 2.9 µM in the assay with OVCAR-4 ovarian; 3.37 µM with MALME-3M melanoma; 3.33 µM in the assay with MDA-MB-231 breast; 2.75 µM in the assay on A498 renal; 2.73 µM with MCF7 breast.

`CS(=O)(=O)Sc1ccc(Cl)cc1`: the TGI in the assay on XF 498 CNS is 22.7 µM; in the assay on M19-MEL melanoma, 21.2 µM; with OVCAR-4 ovarian it was 29.7 µM; in the assay with MALME-3M melanoma it was 26.6 µM; in the assay with HOP-18 NSCLC, 55.4 µM; with RXF-631 renal, 20 µM. Moreover, the TGI with LXFL 529 NSCLC was 23.3 µM; in the assay on A498 renal, 7.48 µM; in the assay on DLD-1 colon, 27.2 µM; in the assay with KM20L2 colon, 24.3 µM; in the assay with SNB-78 CNS it was 15.6 µM.

Take `CCOC(=O)/C(C#N)=c1/s/c(=C(\O)N/N=C/c2ccc(OC)cc2)c(=N)n1-c1ccccc1`: the TGI in the assay with M19-MEL melanoma, with HOP-18 NSCLC, in the assay with LXFL 529 NSCLC and with DLD-1 colon was above 100 µM throughout.

With `NC(C(=O)O)C(O)c1cnc[nH]1` (centres undefined), the TGI in the assay on OVCAR-4 ovarian, in the assay on T-47D breast, in the assay with MALME-3M melanoma, in the assay with MDA-MB-231 breast, with A498 renal and in the assay with MCF7 breast was above 100 µM in each case.

Consider `C[N+](C)(C)CC(=O)N/N=C\c1c(O)ccc2ccccc12`, for which the TGI was above 100 µM in the assay with OVCAR-4 ovarian; above 100 µM in the assay with T-47D breast; 38.3 µM in the assay with MALME-3M melanoma; above 100 µM in the assay on MDA-MB-231 breast; 97.8 µM in the assay with A498 renal; above 100 µM in the assay with MCF7 breast.

For `O=c1cc(O)c1=O`, the TGI with OVCAR-4 ovarian, in the assay on T-47D breast, in the assay on MALME-3M melanoma, in the assay on A498 renal and in the assay on MCF7 breast was above 100 µM in each case.

On to `CCCCCCCCCCCCOC(=N)N1CCOCC1`, for which the TGI in the assay with XF 498 CNS is 29.7 µM; with M19-MEL melanoma, 17.7 µM; with OVCAR-4 ovarian it was 21.2 µM; in the assay with MALME-3M melanoma, 34.5 µM; with DMS 114 small cell lung it was 19.7 µM; in the assay on HOP-18 NSCLC, 16.3 µM. Besides, the TGI was 22.6 µM in the assay with RXF-631 renal; 15.1 µM with LXFL 529 NSCLC; above 52.3 µM in the assay on A498 renal; 12.7 µM in the assay with DLD-1 colon; 13.4 µM in the assay on KM20L2 colon; 27.8 µM with SNB-78 CNS.

On to `Nc1ccc(Oc2ccc(C3(c4ccc(Oc5ccc(N)c(O)c5)cc4)C4CC5CC(C4)CC3C5)cc2)cc1O`, for which the TGI with OVCAR-4 ovarian was 24.9 µM; with T-47D breast it was above 77.2 µM; with MALME-3M melanoma it was 3.92 µM; in the assay with A498 renal, 31 µM.

As for `C/C(=C\COP(=O)(O)CP(=O)(O)O)CC/C=C(\C)CNc1ccccc1`, the TGI in the assay with T-47D breast, in the assay on MDA-MB-231 breast and in the assay with MCF7 breast was above 100 µM in each case.

For `COC(=O)C(Cc1ccc2c(c1)OCO2)(NC(=O)c1ccccc1)P(=O)(OC)OC` (centres undefined), the TGI with XF 498 CNS, in the assay on M19-MEL melanoma, with OVCAR-4 ovarian, in the assay with DMS 114 small cell lung, in the assay on RXF-631 renal and in the assay on LXFL 529 NSCLC was above 100 µM in each case. Moreover, the TGI with A498 renal, with DLD-1 colon, with KM20L2 colon and with SNB-78 CNS was above 100 µM in each case.

As to `Cc1nnc(NS(=O)(=O)c2ccc(N=Nc3c(O)c(C(=O)O)cc4ccccc34)cc2)s1`, the TGI with OVCAR-4 ovarian, in the assay with T-47D breast, with MALME-3M melanoma, in the assay on MDA-MB-231 breast and in the assay with MCF7 breast was above 100 µM throughout.

Consider `COc1ccc2c(c1)SC1=Nc3sc4cc(OC)ccc4[n+]3CN12`, for which the TGI in the assay with T-47D breast is 38.3 µM; in the assay with MALME-3M melanoma, 57 µM; in the assay on MDA-MB-231 breast, above 100 µM; with MCF7 breast, 31.4 µM.

(Values after PubChem BioAssay (NCI).)
